Converted amounts (≈) assume the structure as drawn. Read-outs that look alike come from different tables or passages of the source.
Experiments:
NF-κB = assay: Luciferase reporter assay, NF-κB, HeLa; format: cell-based; details: Homo sapiens; for IC50: HeLa cells, inducer PMA, dash: not inhibited by more than 40% at 50 µmol/L
Method: (§1) Hela cells (or T98G cells) from ATCC were plated in white opaque 384-well plates at a density of 4300 cells/well in 30 µL of growth medium (DMEM with 10% FBS and 1% Pen/Strep). The next day, the medium was aspirated and replaced with DMEM containing 1% FBS. The cells were transfected with respective plasmids using X-tremeGENE HP DNA transfection reagent (Roche). After 24 h of transfection, the test agents were added to the transfected cells, followed 30 min later by an inducing agent: interleukin 6 (IL-6) for Stat3, TGF-β for Smad, m-wnt3a for Wnt and PMA for AP-1, NF-κB, E2F, Myc, ETS, Notch and Hedgehog. No inducer was added for FoXO and pTK. After 4 h or 6 h of induction, the cells were lysed via the addition of the One-Glo luciferase assay system (Promega; Madison, WI). The light output was detected in a GloMax®-Multi+ Detection System with Instinct® Software (Promega E 8051). This luciferase assay determines if the test agent is able to inhibit the activation of cancer-related signaling pathways. In the case of FoxO, the enhanced luciferase activity via the test agent was assessed.

[1] = test system: minimal thymidine kinase promoter (pTK); assay: Luciferase control vector pTK, HeLa; format: cell-based, human; details: HeLa cells; up to 50 µM; no inducer
Method: as §1

E2F = assay: Luciferase reporter assay, E2F, HeLa; format: cell-based, human; details: Homo sapiens, HeLa; for IC50: read-out: IC50, E2F (PMA)
Method: as §1

[2] = Cytotoxicity, Neutral Red, SK-MEL; format: cell-based; details: human, SK-MEL malignant melanoma cells, Na = not active up to 50 µg/mL
Method: (§2) In vitro cytotoxic activity was determined against five human cancer cell lines—malignant melanoma (SK-MEL), epidermal carcinoma oral (KB), ductal carcinoma breast (BT-549), ovary carcinoma (SKOV-3) and cervical (HeLa) cancer cells—and two non-cancerous kidney cell lines (LLC-PK1 and Vero). All cell lines were obtained from the American Type Culture Collection (ATCC, Rockville, MD, USA). Each assay was performed in 96-well tissue culture-treated microplates. The cells were seeded at a density of 25,000 cells/well and incubated for 24 h. Samples at different concentrations were added, and the cells were incubated again for 48 h. At the end of the incubation, the cell viability was determined using Neutral Red dye according to a modification of the procedure used by Borenfreund et al.. IC50 values were determined from dose–response curves of the percent growth inhibition against test concentrations. Doxorubicin was used as a positive control, while DMSO was used as the negative (vehicle) control.

Smad2/3 = assay: Luciferase reporter assay, Smad2/3, HeLa; format: cell-based, human
Method: as §1

[3] = Cytotoxicity, Neutral Red, SK-OV-3; format: cell-based; details: human, SK-OV-3 ovary carcinoma cells, Na = not active up to 50 µg/mL
Method: as §2

CB2 receptor = molecular target: T1, CB2 receptor (Homo sapiens, UniProt P34972); assay: Competitive radioligand binding assay, CB2; details: for Percent displacement, CB2: 10 μM, [3H]-CP55,940
T1 construct: expressed in transfected cells; host or cells: HEK293 (ATCC), stably transfected; membranes
T1 sequence (P34972 whole entry): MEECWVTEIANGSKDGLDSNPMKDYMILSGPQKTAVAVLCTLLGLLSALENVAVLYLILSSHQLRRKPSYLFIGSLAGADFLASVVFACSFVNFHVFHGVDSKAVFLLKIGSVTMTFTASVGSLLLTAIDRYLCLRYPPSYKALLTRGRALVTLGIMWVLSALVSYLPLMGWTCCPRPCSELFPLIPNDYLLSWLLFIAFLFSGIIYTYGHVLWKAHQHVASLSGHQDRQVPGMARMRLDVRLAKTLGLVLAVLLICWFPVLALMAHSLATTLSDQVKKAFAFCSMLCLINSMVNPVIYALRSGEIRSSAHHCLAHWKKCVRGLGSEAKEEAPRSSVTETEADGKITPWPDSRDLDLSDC
Method: HEK293 cells stably transfected with δ, κ and μ opioid subtypes were a generous gift from Roth Laboratories (University of North Carolina at Chapel Hill, N.C., USA). CB and opioid cells were maintained as previously described.
Membranes were purified by first washing the cells with cold PBS and scraping the cells into cold 50 mM Tris-HCl, pH 7.4 buffer, which was centrifuged at 5200× g for 10 min at 4 °C; next, the supernatant was discarded, and the pellet was washed with more Tris-HCl buffer, homogenized via a Sonic Dismembrator (Fisher Scientific, Pittsburgh, PA, USA) and then centrifuged at 24,000× g for 40 min at 4 °C. Finally, the pellet was re-suspended in cold 50 mM Tris-HCl buffer, aliquoted into 2 mL vials and stored at −80 °C. The total membrane protein concentration was measured using a Pierce BCA Protein Assay Kit (Thermo Scientific, Rockford, IL, USA) as per the manufacturer’s protocol.
Cannabinoid and opioid competitive radioligand binding assays were performed as previously described. Saturation experiments were performed for all the receptors to determine the receptor concentration and radioligand dissociation constant (Kd) for the membrane. Percent displacements were evaluated for all the cannabinoid and opioid subtypes with a triplicate of a fixed concentration (10 µg/mL for extracts and fractions and 10 μM for purified compounds). […] Control/test compounds were dissolved in DMSO at 10 μg/mL for extracts and fractions and 10 μM for purified compounds. […] The percent displacement was calculated to represent the ability of the samples to displace the radioligand binding for a given cannabinoid or opioid receptor subtype.
The percent displacement was calculated as follows: 100−binding of compound−nonspecific binding/specific binding×100
The competitive binding assays were performed using 12 serial dilutions of each compound ranging from 0.002 to 300 μM (control compounds were serially diluted from 10 μM to 0.06 nM). The cannabinoid assays were incubated for 90 min at 37 °C with gentle agitation. The opioid assays were incubated for 60 min at room temperature. Bound radioligands were collected on GF/C (cannabinoid) or GF/B plates (opioid) and washed 10 times with ice-cold 50 mM Tris-HCl (pH 7.4)/0.1% BSA (cannabinoid) or ice-cold 50 mM Tris-HCl (pH 7.4) (opioid). Radiodetection was measured with 50 µL (cannabinoid) or 25 µL (opioid) of MicroScint^TM-20 on a TopCount NXT HTS Microplate Scintillation Counter (PerkinElmer, Waltham, MA, USA). The IC50 and Ki values were calculated via a non-linear curve fit model using GraphPad Prism 5.0 software (GraphPad Software, Inc., San Diego, CA, USA). Each compound was tested in triplicate unless stated otherwise.

Myc = assay: Luciferase reporter assay, Myc, HeLa; format: cell-based; details: Homo sapiens; for IC50: HeLa cells, inducer PMA, dash: not inhibited by more than 40% at 50 µmol/L
Method: as §1

[4] = Cytotoxicity, Neutral Red, KB; format: cell-based; details: human, KB epidermal carcinoma (oral) cells, Na = not active up to 50 µg/mL
Method: as §2

Stat3 = assay: Luciferase reporter assay, Stat3, HeLa; format: cell-based, human
Method: as §1

[5] = read-out: Additive effect (in % inhibition): percentage of luciferase induction, E2f (PMA)
[6] = Homo sapiens, HeLa cells, inducer TGF-beta, dash: not inhibited by more than 40% at 50 µmol/L
[7] = Homo sapiens, HeLa cells, inducer IL6, dash: not inhibited by more than 40% at 50 µmol/L

| Structure (SMILES) | IC50 (NF-κB) [µM] | Inhibition of luciferase expression driven by pTK [1] | IC50 (E2F) [µM] | IC50 at 48 h [2] [µg/mL] | IC50 (Smad2/3; [6]) [µM] | IC50 at 48 h [3] [µg/mL] | Percent displacement, CB2 (CB2 receptor) [%] | IC50 (Myc) [µM] | IC50 at 48 h [4] [µg/mL] | IC50 (Stat3; [7]) [µM] | other results |
| --- | --- | --- | --- | --- | --- | --- | --- | --- | --- | --- | --- |
| C[C@H]1CC[C@H]2[C@H](C1)c1c(O)cc(/C=C/c3ccccc3O)cc1OC2(C)C [compound 3, machaeriol C] | 11 | no inhibition | 14 | 25 (≈ 68.6 µM) | 37 | > 50 | 55.5 | 10 | > 50 | 38 | inhibition at 10 µM (NF-κB; HeLa, 3 alone at 10 µM, compared to pTK as control, read-out: Additive effect (in % inhibition): percentage of luciferase induction, NF-κB (PMA)): 70%; inhibition at 10 µM (E2F; [5]): 50%; IC50, Smad2/3 (TGF-beta) (Smad2/3; HeLa cells, inducer TGF-beta, dash: not inhibited by more than 40% at 50 µmol/L): lacked activity; inhibition at 10 µM (Smad2/3; Homo sapiens, HeLa, 3 alone at 10 µM, compared to pTK as control, read-out: Additive effect (in % inhibition): percentage of luciferase induction, Smad2/3 (TGF-β)): 93%; Ki (CB2 receptor): > 7.76 µM; inhibition at 10 µM (Myc; HeLa, 3 alone at 10 µM, compared to pTK as control, read-out: Additive effect (in % inhibition): percentage of luciferase induction, Myc (PMA)): 52%; IC50, Stat3 (IL6) (Stat3; HeLa cells, inducer IL6, dash: not inhibited by more than 40% at 50 µmol/L): lacked activity; inhibition at 10 µM (Stat3; Homo sapiens, HeLa, 3 alone at 10 µM, compared to pTK as control, read-out: Additive effect (in % inhibition): percentage of luciferase induction, Stat3 (IL-6)): 92% |
| C=C(C)[C@H]1CC[C@H](C)C[C@@H]1c1c(O)cc(/C=C/c2ccccc2O)cc1O [compound 6, machaeridiol B] | 0.5 | no inhibition | 5.7 | 32 (≈ 87.8 µM) | 1.2 | > 50 | 56.8 | 5.3 | 38 (≈ 104 µM) | 4.7 | inhibition at 2 µM (NF-κB; HeLa, 6 alone at 2 µM, compared to pTK as control, read-out: Additive effect (in % inhibition): percentage of luciferase induction, NF-κB (PMA)): 76%; inhibition at 2 µM (E2F; [5]): 80%; inhibition at 2 µM (Smad2/3; Homo sapiens, HeLa, 6 alone at 2 µM, compared to pTK as control, read-out: Additive effect (in % inhibition): percentage of luciferase induction, Smad2/3 (TGF-β)): 109%; Ki (CB2 receptor; * tested up to solubility limit, conc. at 33.3 μM and above precipitated, read-out: CB2 Ki ± SEM): > 2.18 µM; inhibition at 2 µM (Myc; HeLa, 6 alone at 2 µM, compared to pTK as control, read-out: Additive effect (in % inhibition): percentage of luciferase induction, Myc (PMA)): 111%; inhibition at 2 µM (Stat3; Homo sapiens, HeLa, 6 alone at 2 µM, compared to pTK as control, read-out: Additive effect (in % inhibition): percentage of luciferase induction, Stat3 (IL-6)): 82% |

— publication PMC10361207, “Cannabinoid and Opioid Receptor Affinity and Modulation of Cancer-Related Signaling Pathways of Machaeriols and Machaeridiols from Machaerium Pers” (Molecules, 2023)
